The target in test [1] is Beta-1 adrenergic receptor (Homo sapiens, UniProt P08588). It is filed as functional.
Test [2] deals with Melanocortin receptor 3 (Homo sapiens, UniProt P41968).
The target in test [3] is T1, Amine oxidase [flavin-containing] A (Homo sapiens, UniProt P21397).
T1 sequence (P21397 whole entry): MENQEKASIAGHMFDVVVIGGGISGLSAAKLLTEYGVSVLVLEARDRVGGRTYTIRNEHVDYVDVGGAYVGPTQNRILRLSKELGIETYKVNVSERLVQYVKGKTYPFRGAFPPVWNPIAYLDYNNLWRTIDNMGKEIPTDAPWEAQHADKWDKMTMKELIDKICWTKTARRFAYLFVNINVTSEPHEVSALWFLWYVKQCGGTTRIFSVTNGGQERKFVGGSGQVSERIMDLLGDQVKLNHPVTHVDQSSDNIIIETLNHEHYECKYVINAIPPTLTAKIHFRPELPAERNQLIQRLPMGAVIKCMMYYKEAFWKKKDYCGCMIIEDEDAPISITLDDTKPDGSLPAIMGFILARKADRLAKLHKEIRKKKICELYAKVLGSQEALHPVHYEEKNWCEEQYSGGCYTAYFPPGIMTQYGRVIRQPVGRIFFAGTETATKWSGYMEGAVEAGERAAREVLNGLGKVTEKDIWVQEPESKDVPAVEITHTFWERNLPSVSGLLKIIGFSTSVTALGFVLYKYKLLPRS
It is filed as functional.

The target of test [4] is Sodium-dependent noradrenaline transporter (Homo sapiens, UniProt P23975).
Test [5] concerns the target T2, Cholecystokinin receptor type A (Homo sapiens, UniProt P32238).
T2 sequence (P32238 whole entry): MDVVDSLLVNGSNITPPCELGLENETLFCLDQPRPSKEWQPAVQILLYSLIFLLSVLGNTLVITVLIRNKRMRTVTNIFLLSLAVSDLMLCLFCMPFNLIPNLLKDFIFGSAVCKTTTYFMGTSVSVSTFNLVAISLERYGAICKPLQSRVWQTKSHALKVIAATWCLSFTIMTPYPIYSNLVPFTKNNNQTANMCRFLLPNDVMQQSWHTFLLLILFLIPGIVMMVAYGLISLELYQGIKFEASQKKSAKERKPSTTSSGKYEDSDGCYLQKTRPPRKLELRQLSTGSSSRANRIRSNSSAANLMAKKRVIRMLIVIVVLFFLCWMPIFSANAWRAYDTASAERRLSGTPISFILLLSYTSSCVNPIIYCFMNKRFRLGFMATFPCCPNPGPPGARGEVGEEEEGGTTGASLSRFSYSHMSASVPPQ

Test [6] concerns the target T3, Muscarinic acetylcholine receptor M2 (Homo sapiens, UniProt P08172).
T3 sequence (P08172 whole entry): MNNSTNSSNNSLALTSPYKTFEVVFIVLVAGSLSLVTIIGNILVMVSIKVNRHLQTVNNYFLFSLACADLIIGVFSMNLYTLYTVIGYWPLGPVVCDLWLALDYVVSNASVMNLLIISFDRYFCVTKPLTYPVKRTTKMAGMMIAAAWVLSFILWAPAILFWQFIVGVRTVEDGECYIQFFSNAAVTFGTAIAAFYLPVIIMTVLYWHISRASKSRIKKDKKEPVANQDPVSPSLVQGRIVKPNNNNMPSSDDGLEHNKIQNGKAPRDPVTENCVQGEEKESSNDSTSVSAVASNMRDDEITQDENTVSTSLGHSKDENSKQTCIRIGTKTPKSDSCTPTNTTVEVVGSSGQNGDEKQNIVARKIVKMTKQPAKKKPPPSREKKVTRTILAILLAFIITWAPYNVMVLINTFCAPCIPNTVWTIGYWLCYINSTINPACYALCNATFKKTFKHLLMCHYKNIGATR
Format: functional, cell-based.

Test [7] concerns the target Delta-type opioid receptor (Homo sapiens, UniProt P41143).
Test [8] concerns the target T3, Muscarinic acetylcholine receptor M2. Format: functional, cell-based. The source holds these as a separate data set.
Test [9] addresses Vasopressin V1a receptor (Homo sapiens, UniProt P37288).
In test [10] the target is Voltage-dependent L-type calcium channel subunit alpha-1C (Rattus norvegicus, UniProt P22002). It is filed as functional.
Test [11] has as its target T4, Equilibrative nucleoside transporter 1 (Homo sapiens, UniProt Q99808).
T4 sequence (Q99808 whole entry): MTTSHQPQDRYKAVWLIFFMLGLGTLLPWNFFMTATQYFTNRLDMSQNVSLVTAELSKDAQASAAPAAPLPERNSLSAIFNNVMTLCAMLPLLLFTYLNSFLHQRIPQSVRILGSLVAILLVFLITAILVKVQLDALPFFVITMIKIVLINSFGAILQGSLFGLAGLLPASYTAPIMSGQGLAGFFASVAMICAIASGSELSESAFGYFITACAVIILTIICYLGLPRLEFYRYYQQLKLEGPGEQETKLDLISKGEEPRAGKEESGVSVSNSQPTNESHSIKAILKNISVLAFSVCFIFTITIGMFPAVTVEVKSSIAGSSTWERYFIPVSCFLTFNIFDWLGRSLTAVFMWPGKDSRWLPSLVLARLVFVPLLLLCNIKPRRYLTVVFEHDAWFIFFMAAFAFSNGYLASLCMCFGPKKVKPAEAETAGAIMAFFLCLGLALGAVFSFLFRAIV

For test [12], the target named is T5, Estrogen receptor (Homo sapiens, UniProt P03372).
T5 sequence (P03372 whole entry): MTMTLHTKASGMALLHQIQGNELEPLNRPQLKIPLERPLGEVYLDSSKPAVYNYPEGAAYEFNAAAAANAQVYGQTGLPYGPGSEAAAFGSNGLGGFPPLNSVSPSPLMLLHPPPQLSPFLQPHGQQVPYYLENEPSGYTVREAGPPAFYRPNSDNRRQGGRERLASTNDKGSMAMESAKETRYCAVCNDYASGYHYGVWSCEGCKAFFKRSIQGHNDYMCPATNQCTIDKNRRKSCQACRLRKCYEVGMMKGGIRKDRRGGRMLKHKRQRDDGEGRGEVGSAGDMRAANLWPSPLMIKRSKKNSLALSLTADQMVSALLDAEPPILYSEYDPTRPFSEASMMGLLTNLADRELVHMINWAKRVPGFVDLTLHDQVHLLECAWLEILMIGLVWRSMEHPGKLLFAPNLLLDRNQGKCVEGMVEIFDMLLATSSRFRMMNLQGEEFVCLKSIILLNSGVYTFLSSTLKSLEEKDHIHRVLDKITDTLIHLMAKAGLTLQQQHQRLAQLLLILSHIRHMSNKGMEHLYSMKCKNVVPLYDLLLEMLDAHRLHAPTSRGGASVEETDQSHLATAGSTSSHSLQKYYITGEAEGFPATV
Further: assay procedure not described here.

Voltage-dependent L-type calcium channel subunit alpha-1C, sequence (P22002 whole entry): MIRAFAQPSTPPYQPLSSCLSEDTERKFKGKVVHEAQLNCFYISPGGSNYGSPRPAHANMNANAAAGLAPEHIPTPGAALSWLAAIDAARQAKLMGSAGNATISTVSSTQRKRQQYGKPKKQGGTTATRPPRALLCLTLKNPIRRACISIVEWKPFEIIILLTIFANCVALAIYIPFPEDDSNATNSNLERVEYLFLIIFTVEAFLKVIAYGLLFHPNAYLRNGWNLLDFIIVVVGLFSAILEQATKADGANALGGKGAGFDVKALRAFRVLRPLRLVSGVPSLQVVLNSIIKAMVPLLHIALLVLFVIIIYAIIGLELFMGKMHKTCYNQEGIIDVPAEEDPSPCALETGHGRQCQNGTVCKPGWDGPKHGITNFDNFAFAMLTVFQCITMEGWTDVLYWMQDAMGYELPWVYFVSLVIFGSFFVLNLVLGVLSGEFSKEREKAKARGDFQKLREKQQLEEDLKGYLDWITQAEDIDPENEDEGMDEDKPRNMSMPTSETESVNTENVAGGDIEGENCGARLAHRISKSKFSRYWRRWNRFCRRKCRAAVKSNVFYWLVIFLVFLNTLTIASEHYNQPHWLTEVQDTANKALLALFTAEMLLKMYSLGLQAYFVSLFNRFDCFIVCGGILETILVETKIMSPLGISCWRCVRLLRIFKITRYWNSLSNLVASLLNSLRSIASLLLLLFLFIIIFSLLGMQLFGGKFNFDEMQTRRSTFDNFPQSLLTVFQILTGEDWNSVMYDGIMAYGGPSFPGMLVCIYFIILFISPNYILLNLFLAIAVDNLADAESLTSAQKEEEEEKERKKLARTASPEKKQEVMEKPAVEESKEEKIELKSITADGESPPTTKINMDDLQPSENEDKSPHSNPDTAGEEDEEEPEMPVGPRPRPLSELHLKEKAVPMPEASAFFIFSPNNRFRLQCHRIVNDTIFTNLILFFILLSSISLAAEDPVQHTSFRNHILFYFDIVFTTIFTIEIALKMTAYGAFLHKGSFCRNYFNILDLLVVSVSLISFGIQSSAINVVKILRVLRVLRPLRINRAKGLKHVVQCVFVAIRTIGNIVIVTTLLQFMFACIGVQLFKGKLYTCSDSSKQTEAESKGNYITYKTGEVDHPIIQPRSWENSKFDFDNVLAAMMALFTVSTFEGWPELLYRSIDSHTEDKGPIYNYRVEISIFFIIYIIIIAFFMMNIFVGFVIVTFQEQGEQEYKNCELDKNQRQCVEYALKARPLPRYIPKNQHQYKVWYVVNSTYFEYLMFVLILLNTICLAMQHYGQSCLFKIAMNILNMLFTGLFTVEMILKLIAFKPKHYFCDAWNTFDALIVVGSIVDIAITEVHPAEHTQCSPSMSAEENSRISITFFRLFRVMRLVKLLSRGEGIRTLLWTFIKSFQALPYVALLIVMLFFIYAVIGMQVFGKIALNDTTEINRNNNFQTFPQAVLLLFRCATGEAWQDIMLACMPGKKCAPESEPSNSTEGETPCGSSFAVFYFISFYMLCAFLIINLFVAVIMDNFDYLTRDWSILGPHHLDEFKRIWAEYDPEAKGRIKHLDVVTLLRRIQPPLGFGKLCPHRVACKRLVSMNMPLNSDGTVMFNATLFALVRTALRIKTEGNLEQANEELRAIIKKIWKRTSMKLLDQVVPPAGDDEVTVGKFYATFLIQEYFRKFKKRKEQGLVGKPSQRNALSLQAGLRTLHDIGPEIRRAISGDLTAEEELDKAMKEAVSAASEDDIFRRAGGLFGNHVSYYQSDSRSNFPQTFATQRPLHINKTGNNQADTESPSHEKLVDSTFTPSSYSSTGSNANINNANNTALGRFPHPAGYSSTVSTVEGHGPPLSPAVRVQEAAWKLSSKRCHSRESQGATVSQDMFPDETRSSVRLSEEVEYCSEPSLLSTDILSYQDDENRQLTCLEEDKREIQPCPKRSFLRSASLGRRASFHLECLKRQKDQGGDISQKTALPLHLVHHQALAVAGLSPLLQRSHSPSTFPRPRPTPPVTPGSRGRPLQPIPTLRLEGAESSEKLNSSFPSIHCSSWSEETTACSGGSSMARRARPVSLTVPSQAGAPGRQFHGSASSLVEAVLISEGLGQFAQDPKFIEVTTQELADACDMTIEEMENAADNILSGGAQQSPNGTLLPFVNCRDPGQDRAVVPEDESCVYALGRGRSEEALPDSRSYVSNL
Melanocortin receptor 3, sequence (P41968 whole entry): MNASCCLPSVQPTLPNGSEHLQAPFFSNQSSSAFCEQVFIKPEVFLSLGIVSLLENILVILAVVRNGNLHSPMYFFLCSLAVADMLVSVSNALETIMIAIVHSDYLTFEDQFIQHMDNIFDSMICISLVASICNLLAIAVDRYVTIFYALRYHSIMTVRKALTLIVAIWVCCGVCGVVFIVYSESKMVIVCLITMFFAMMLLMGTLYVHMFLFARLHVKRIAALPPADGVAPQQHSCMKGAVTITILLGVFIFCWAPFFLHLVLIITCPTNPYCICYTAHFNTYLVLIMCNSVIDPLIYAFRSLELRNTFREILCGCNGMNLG
Beta-1 adrenergic receptor, sequence (P08588 whole entry): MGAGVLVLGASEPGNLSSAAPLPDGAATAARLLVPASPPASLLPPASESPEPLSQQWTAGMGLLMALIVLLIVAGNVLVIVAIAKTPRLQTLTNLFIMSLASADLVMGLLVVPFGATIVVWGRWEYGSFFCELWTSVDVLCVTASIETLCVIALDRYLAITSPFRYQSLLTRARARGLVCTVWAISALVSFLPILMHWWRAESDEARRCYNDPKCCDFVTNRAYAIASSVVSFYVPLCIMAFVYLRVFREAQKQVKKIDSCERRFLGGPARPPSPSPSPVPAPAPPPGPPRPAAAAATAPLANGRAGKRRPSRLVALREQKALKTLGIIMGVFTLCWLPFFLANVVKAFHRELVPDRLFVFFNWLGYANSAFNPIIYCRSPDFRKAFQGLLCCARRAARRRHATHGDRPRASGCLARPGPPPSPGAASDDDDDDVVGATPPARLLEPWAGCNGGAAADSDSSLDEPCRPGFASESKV
Sodium-dependent noradrenaline transporter, sequence (P23975 whole entry): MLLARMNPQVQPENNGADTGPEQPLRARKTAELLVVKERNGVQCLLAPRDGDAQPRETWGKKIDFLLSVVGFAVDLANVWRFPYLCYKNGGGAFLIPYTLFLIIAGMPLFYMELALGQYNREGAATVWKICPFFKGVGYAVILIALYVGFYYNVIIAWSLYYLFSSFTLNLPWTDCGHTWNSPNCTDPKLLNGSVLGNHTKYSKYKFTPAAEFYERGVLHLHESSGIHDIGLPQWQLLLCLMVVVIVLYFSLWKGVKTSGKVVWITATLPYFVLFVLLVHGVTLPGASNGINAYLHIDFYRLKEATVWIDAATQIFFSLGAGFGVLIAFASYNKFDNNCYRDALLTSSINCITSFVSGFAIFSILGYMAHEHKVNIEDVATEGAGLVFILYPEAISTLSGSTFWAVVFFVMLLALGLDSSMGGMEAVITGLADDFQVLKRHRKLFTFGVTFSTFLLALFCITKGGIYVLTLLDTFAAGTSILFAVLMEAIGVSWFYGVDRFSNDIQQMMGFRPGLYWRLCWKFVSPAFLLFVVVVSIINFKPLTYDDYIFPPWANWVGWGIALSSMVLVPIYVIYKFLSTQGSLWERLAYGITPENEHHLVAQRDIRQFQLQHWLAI
Delta-type opioid receptor, sequence (P41143 whole entry): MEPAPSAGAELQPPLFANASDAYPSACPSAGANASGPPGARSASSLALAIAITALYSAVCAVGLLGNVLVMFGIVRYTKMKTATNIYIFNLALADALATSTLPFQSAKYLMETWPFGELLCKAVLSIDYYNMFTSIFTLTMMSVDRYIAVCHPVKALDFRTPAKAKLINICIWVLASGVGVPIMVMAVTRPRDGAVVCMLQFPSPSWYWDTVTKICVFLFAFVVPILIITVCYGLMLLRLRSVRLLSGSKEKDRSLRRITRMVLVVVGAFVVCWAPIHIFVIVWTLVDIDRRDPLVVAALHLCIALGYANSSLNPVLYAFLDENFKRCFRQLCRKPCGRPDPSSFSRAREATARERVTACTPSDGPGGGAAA
Vasopressin V1a receptor, sequence (P37288 whole entry): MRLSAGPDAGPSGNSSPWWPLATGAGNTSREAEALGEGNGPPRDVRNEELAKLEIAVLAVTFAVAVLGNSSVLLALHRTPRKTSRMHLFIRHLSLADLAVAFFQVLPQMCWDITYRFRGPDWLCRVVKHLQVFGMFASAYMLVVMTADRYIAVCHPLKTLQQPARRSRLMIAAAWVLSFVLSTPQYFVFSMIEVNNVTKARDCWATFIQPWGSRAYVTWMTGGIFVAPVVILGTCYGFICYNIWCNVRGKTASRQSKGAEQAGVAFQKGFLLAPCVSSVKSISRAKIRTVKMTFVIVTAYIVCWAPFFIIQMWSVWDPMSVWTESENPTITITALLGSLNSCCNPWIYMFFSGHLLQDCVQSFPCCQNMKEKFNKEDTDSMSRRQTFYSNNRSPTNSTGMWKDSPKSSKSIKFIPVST

In general, AC50 refers to the concentration at which the activity in the assay is half-maximal. Regarding `CN(C(=O)c1c(O)c2ccccc2n(C)c1=O)c1ccccc1` [ROQUINIMEX], the AC50 in test [1], in test [2], in test [3] and in test [4] was above 30 µM in each case.

As to `CCC(COC(=O)c1cc(OC)c(OC)c(OC)c1)(c1ccccc1)N(C)C` (stereo unspecified) [TRIMEBUTINE], the AC50 is above 30 µM in [5]; above 30 µM in [1]; 1.2 µM in test [6]; 4 µM in test [7]; above 30 µM in [8]; above 30 µM in test [2]. Further, the AC50 in test [3] is above 30 µM; in test [4] it was above 30 µM; in test [9] it was above 30 µM; in test [10], 21 µM.

Consider `CCCCCCCCCCCCCCCCCCCCCC(=O)Nc1ccn([C@@H]2O[C@H](CO)[C@@H](O)[C@@H]2O)c(=O)n1` [ENOCITABINE], for which the AC50 in [5], in test [1], in [6], in test [7], in test [8] and in test [2] was above 30 µM each time. Further, the AC50 in [3], in test [4], in test [9], in test [11] and in test [10] was above 30 µM throughout.

For the compound `OCc1cc(C(O)CNCCCCCCOCCCCc2ccccc2)ccc1O` (stereo unspecified) [SALMETEROL], the AC50 in test [5] is above 30 µM; in test [7], above 30 µM; in test [2] it was above 30 µM; in test [3] it was above 10 µM; in [4], 4.3 µM; in test [12], above 30 µM. For the same compound, the AC50 in test [11] is above 30 µM; in [10], above 10 µM.

In the case of `Cn1cnc2c(F)c(Nc3ccc(Br)cc3Cl)c(C(=O)NOCCO)cc21` [SELUMETINIB], the AC50 in test [2] was above 30 µM; in [3], above 10 µM; in test [4] it was above 30 µM; in [11] it was above 30 µM.

Take `CC(=O)[C@]1(O)Cc2c(O)c3c(c(O)c2[C@@H](O[C@H]2C[C@H](N)[C@H](O)[C@H](C)O2)C1)C(=O)c1ccccc1C3=O` [IDARUBICIN]: the AC50 was above 10 µM in test [5]; above 30 µM in test [1]; 19 µM in test [7]; above 30 µM in test [3]; 8.7 µM in test [4]; above 30 µM in [9]. The AC50 in [11] and in test [10] was above 30 µM throughout.

As to `Oc1ccc2c(c1)[C@@]13CCCC[C@@]1(O)[C@@H](C2)N(CC1CCC1)CC3` [BUTORPHANOL], the AC50 in [5] is above 30 µM; in test [1], above 30 µM; in [6], above 30 µM; in test [7], 0.18 µM; in [8], above 30 µM; in [2] it was above 30 µM. Further, the AC50 in test [3], in test [4], in test [9], in test [12] and in test [11] was above 30 µM in each case.

As for `COc1cc2ncnc(Nc3ccc(F)c(Cl)c3)c2cc1NC(=O)/C=C/CN1CCCCC1` [DACOMITINIB ANHYDROUS], the AC50 in test [1] was above 30 µM; in test [6], above 10 µM; in [8], above 30 µM; in test [2], 27 µM; in [3] it was above 30 µM; in [4], 14 µM.

Take `CCN1CCCC1CNC(=O)c1cc(S(=O)(=O)CC)c(N)cc1OC` (stereo unspecified) [AMISULPRIDE]: the AC50 in test [1], in [6], in [7], in test [8], in [2] and in [3] was above 30 µM throughout. The AC50 in test [4], in test [12] and in test [11] was above 30 µM each time.

In the case of `CC(=O)OCC(=O)[C@@]1(O)[C@H](C)C[C@H]2[C@@H]3CCC4=CC(=O)C=C[C@]4(C)[C@@]3(F)[C@@H](O)C[C@@]21C` [DEXAMETHASONE ACETATE], the AC50 in test [5] is above 30 µM; in test [1], above 10 µM; in test [6], above 10 µM; in test [7], above 30 µM; in [8], above 10 µM; in test [2] it was above 30 µM. Further, the AC50 was above 10 µM in [3]; above 30 µM in [4]; above 30 µM in test [9]; above 30 µM in [11]; above 10 µM in test [10].

For `COc1ccc(-c2noc(CC(=O)O)c2-c2ccc(OC)cc2)cc1` [MOFEZOLAC], the AC50 in test [5], in test [1], in test [6], in test [7], in [8] and in [2] was above 30 µM each time. For the same compound, the AC50 in test [4], in [9], in [11] and in test [10] was above 30 µM in each case.

In the case of `CCOC(=O)O[C@]1(C(=O)OCCl)CC[C@H]2[C@@H]3CCC4=CC(=O)C=C[C@]4(C)[C@H]3[C@@H](O)C[C@@]21C` [LOTEPREDNOL ETABONATE], the AC50 in test [5], in test [1], in test [6], in test [7], in test [8] and in test [2] was above 30 µM each time. Moreover, the AC50 in [3], in [4], in [9], in [11] and in [10] was above 30 µM in each case.

Regarding `NC(=O)CN1CCCC1=O`, the AC50 in test [5], in test [1], in test [6], in [7], in [8] and in test [2] was above 30 µM in each case. Besides, the AC50 in [3] and in test [4] was above 30 µM in each case.

These data come from ChEMBL document CHEMBL5291721, “A preclinical secondary pharmacology resource illuminates target-adverse drug reaction associations of marketed drugs” (Nat Commun, 2023).
